Data on four molecules can be found in patent US5438062A, “Benzo(5,6)cycloheptapyridines, compositions and methods of use” (Schering Corporation, priority 1987, dated 1995).

pIC50: −log10 of the molar value.

Series [1] has as its system PAF-induced platelet aggregation (platelet-rich plasma). The series can be described thus: PAF antagonism, in vitro platelet aggregation assay. Type of series: cell-based. Conditions: dose giving 50 % PAF antagonism, human PRP, PAF 1-5×10^-8 M. On the procedure: Blood was centrifuged at 110×g for 15 min. and the supernatant PRP carefully transferred into a polypropylene tube. Platelet-poor-plasma (PPP) was prepared by centrifuging PRP at 12,000×g for 2 min. in a Beckman Microfuge B. PRP was used within 3 hours of drawing the blood.
Platelet Aggregation Assay: When an aggregating agent such as PAF is added to PRP, platelets aggregate. An aggregometer quantifies this aggregation by measuring light (infra-red) transmission through PRP and comparing to PPP. The aggregation assays were performed using a dual-channel aggregometer (Model 440, Chrono-Log Corp., Hayertown, Pa.). PRP (0.45 ml) in aggregometer curettes was continually stirred (37° C.). Solutions of test compounds or vehicle were added to the PRP, and after incubation for 2 min., 10-15 μl aliquots of PAF solution were added so as to achieve a final concentration of 1-5×10^-8 M. Incubations were continued until the increase in light transmission reached a maximum (usually about 2 min). Values for inhibition were calculated by comparing maximal aggregation obtained in the absence and the presence of the compound. For each experiment, a standard PAF antagonist, such as alprazolam, was used as a positive internal control. […] The test results are shown below in Tables Ia, Ib and Ic.

Series [2] relates to histamine-induced lethality. Put plainly: Antihistamine activity: prevention of histamine-induced lethality in guinea pigs. It is filed as in vivo. The note with it: Cavia porcellus, guinea pig; for responders at 5 mg/kg: oral dose 5 mg/kg PO. The method, then:
C. ANTIHISTAMINE ACTIVITY ASSAY
Prevention of Histamine-Induced Lethality in Guinea Pigs. Some of compounds shown below in Table I also were evaluated for antihistamine activity by their ability to protect female albino guinea pigs (250-350 g) against death induced by the intravenous injection of histamine dihydrochloride at 1.1 mg/kg, which is approximately twice the LD99. Doses of the antagonists were administered orally to separate groups of fasted animals 1 hour prior to the challenge with histamine and protection from death recorded for 30 minutes after histamine. ED50 values were determined for each drug by probit analysis.

Series [3] in a line: CNS activity: antagonism of physostigmine lethality. The note with it: mouse, in vivo; mice, oral, 30 minutes prior to physostigmine 1.0 mg/kg s.c.
Protocol: D. Antagonism of Physostigmine Lethality. The physostigmine-induced lethality test is indicative of CNS activity and the test described is a modification of the technique reported by COLLIER et al., Br. J. Pharmac., 32, 295-310 (1968). physostigmine salicylate (1.0 mg/kg s.c.) produces 100% lethality when administered to mice grouped 10 per plastic cage (11×26×13 cm). Test agents were administered orally 30 minutes prior to physostigmine. The number of survivors were counted 20 minutes after physostigmine administration.
Series [4] is described as follows: CNS activity: antagonism of acetic acid writhing. Conditions: mouse, in vivo; mice, oral, 15 minutes before acetic acid i.p. On the procedure:
E. Antagonism of Acetic Acid Writhing. The acetic acid writhing test is a second test useful for determining CNS activity, and is essentially that described by HENDERSHOT and FORSAITH, J. Pharmac. […] Mice were injected with 0.6% aqueous acetic acid at 10 mg/kg i.p. 15 minutes after oral administration of the test drug. The number of writhes for each animal was counted during a 10 minute period starting 3 minutes after acetic acid treatment. A writhe was defined as a sequence of arching of the back, pelvic rotation and hind limb extension.
A general note: Writhing tests count abdominal constrictions after an irritant is injected.

Series [5] in a line: CNS activity: antagonism of electro-convulsive shock (ECS). The note with it: mouse, in vivo; mice, oral, one hour before ECS; read-out: ECS test ED50. On the procedure: F. Antagonism of Electro-Convulsive Shock (ECS). The ECS test is a third test useful for determining CNS activity. […] One hour after oral administration of the test drug or vehicle, mice were administered a 13 mA, 60 cycle a.c. electroconvulsant shock (ECS) for 0.2 seconds via corneal electrodes.

Series [6] deals with PAF-induced bronchospasm. Put plainly: PAF-induced bronchospasm in guinea pigs. Type of series: in vivo. The note with it: guinea pig. The method, then: PAF is also a known bronchoconstrictive agent in mammals.
B. PAF-INDUCED BRONCHOSPASM IN GUINEA PIGS
Non-sensitized guinea Digs were fasted overnight, and the following morning were anesthetized with 0.9 ml/kg i.p. of dialurethane (0.1 g/ml of diallybarbituric acid, 0.4 g/ml of ethylurea and 0.4 g/ml of urethane). The trachea was cannulated and the animals were ventilated by a Harvard rodent respirator at 55 strokes/min. with a stroke volume of 4 ml. A side arm to the tracheal cannula was connected to a Harvard pressure transducer to obtain a continuous measure of intratracheal pressure, which was recorded on a Harvard Polygraph. The jugular vein was cannulated for the administration of compounds. The animals were challenged i.v. with PAF (0.4 ug/kg in isotonic saline containing 0.25% BSA) and the peak increase in inflation pressure that occurred within 5 min. after challenge was recorded. Test compounds were administered either orally (2 hrs. prior to PAF as a suspension in 0.4% methylcellulose vehicle) or intravenously (10 min. prior to PAF as a solution in dimethylsulfoxide).

Where [7] appears, read: 0.5 h, 1 hour before histamine 1.1 mg/kg i.v., read-out: Antihistaminic Activity, % Survival.

The pIC50 is −log10 of the IC50, conventionally taken in molar units. Low readings indicate a high IC50, high ones a low IC50. As usually defined, the ED50 is the dose that gives a 50% effect, or the effect in half of the subjects. For the molecule `CN1CCC(=C2c3ccccc3CCc3cccnc32)CC1` [R^3 = H, R^4 = H, A = H, CZR = CH3, reference compound], the pIC50 in series [1] was less than 4.00. In addition, the ED50 was 0.009 mg/kg in series [2] (oral, probit analysis, read-out: Antihistaminic Activity, ED50); 6.1 mg/kg in series [3]; 8.9 mg/kg in series [4]; more than 80 mg/kg in series [5].

`CC(=O)N1CCC(=C2c3ccc(F)cc3CCc3cccnc32)CC1` [R = CH3, Z = O, R^3 = F, R^4 = H, 8-fluoro-11-(1-acetyl-4-piperidylidene)-6,11-dihydro-5H-benzo[5,6]cyclohepta[1,2-b]pyridine] showed a pIC50 in series [1] of 6.15. For the same molecule, the “inhibition of PAF-induced bronchospasm” value in series [6] (3 mg/kg (iv)) was determined as 99%. For the same molecule, the responders at 5 mg/kg in series [2] (setting [7]) is 20%.

In turn, `CC(=O)N1CCC(=C2c3cc(F)ccc3CCc3cccnc32)CC1` [R = CH3, Z = O, R^3 = H, R^4 = F, 9-fluoro-11-(1-acetyl-4-piperidylidene)-6,11-dihydro-5H-benzo[5,6]cyclohepta[1,2-b]pyridine] gave a negative logarithm of the IC50 (pIC50) in series [1] of 6.05. Also, in series [6] (3 mg/kg (iv)), the “inhibition of PAF-induced bronchospasm” value is on record as 97%. The responders at 5 mg/kg in series [2] (setting [7]) was found to be 0%.

In series [1], `CC(=O)N1CCC(=C2c3ccc(Cl)cc3CCc3cccnc32)CC1` [Z = O, R = CH3, R^3 = Cl, R^4 = H, 8-chloro-11-(1-acetyl-4-piperidylidene)-6,11-dihydro-5H-benzo[5,6]cyclohepta[1,2-b]pyridine] had a pIC50 of 6.15. Also, the “inhibition of PAF-induced bronchospasm” value in series [6] (1 mg/kg intravenously) was found to be 75%. Moreover, the responders at 1 mg/kg in series [2] (0.5 h, oral dose 1 mg/kg PO, 1 hour before histamine 1.1 mg/kg i.v., read-out: Antihistaminic Activity, % Survival) turned out to be 60%. In series [2] (setting [7]), the responders at 5 mg/kg worked out at 100%. The ED50 in series [4] is more than 160 mg/kg; in series [5], more than 320 mg/kg.
